From ChEMBL document CHEMBL4428032, “Furofuran Lignan Glucosides with Estrogen-Inhibitory Properties from the Bangladeshi Medicinal Plant Terminalia citrina” (2016)
Activity calls are given as the source filed them. No cut-off for these calls is given here.

Legend:
[1] = system: MCF7; assay: Antiestrogenic activity in human MCF7 cells assessed as inhibition of E2-induced cell proliferation up to 10 uM after 96 hrs by alamar blue assay relative to control; type: functional
[2] = system: T47D; assay: Estrogen-like activity in human T47D cells assessed as increase in cell proliferation after 96 hrs by alamar blue assay; type: functional, cell-based
[3] = system: MCF7; assay: Estrogen-like activity in human MCF7 cells assessed as increase in cell proliferation after 96 hrs by alamar blue assay; type: functional, cell-based
[4] = system: Leishmania major; assay: Leishmanicidal activity against Leishmania major promastigotes at 100 ug/ml after 48 hrs by MTT assay; type: functional, organism-based
[5] = system: T47D; assay: Antiestrogenic activity in human T47D cells assessed as compound concentration required to decrease 100 pM E2-induced cell proliferation to equivalent levels induced by 50 pM E2 after 96 hrs by alamar blue assay; type: functional
[6] = system: MCF7; assay: Antiestrogenic activity in human MCF7 cells assessed as compound concentration required to decrease 100 pM E2-induced cell proliferation to equivalent levels induced by 50 pM E2 after 96 hrs by alamar blue assay; type: functional
[7] = system: MCF7; assay: Antiestrogenic activity in human MCF7 cells assessed as compound concentration required to decrease 100 pM E2-induced cell proliferation to equivalent levels induced by 10 pM E2 after 96 hrs by alamar blue assay; type: functional
[8] = system: T47D; assay: Antiestrogenic activity in human T47D cells assessed as compound concentration required to decrease 100 pM E2-induced cell proliferation to equivalent levels induced by 10 pM E2 after 96 hrs by alamar blue assay; type: functional
[9] = system: T47D; assay: Antiestrogenic activity in human T47D cells assessed as inhibition of E2-induced cell proliferation up to 10 uM after 96 hrs by alamar blue assay relative to control; type: functional
[10] = system: MCF7; assay: Antiestrogenic activity in human MCF7 cells assessed as compound concentration required to decrease 100 pM E2-induced cell proliferation to equivalent levels induced by 1 pM E2 after 96 hrs by alamar blue assay; type: functional
[11] = system: T47D; assay: Antiestrogenic activity in human T47D cells assessed as compound concentration required to decrease 100 pM E2-induced cell proliferation to equivalent levels induced by 1 pM E2 after 96 hrs by alamar blue assay; type: functional

SMILES	inhibition (INH) [1] [%]	Activity [2]	Activity [3]	Activity [4]	Activity [5] [µM]	Activity [6] [µM]	Activity [7] [µM]	Activity [8] [µM]	inhibition (INH) [9] [%]	Activity [10] [µM]	Activity [11] [µM]
COc1c(O)cc([C@H]2OC[C@H]3[C@@H]2CO[C@@H]3c2cc3c(c(OC)c2OC)OCO3)c(O[C@@H]2O[C@H](CO)[C@@H](O)[C@H](O)[C@H]2O)c1OC	>90	inactive	inactive	inactive	<0.01	<0.01	<0.01				
COc1cc([C@@H]2OC[C@@H]3[C@H]2CO[C@H]3c2cc(O[C@@H]3O[C@H](CO)[C@@H](O)[C@H](O)[C@H]3O)c(OC)c(OC)c2OC)c(OC)c(OC)c1OC		inactive	inactive	inactive	<0.01	<0.01		1	>50		
COc1c(O)cc([C@H]2OC[C@H]3[C@@H]2CO[C@@H]3c2ccc3c(c2)OCO3)c(O[C@@H]2O[C@H](CO)[C@@H](O)[C@H](O)[C@H]2O)c1OC		inactive	inactive	inactive	<0.01	<0.01					
COc1c(O)cc([C@@H]2OC[C@@H]3[C@H]2CO[C@H]3c2cc(O[C@@H]3O[C@H](CO)[C@@H](O)[C@H](O)[C@H]3O)c(OC)c(OC)c2OC)c(OC)c1OC	>90	inactive	inactive	inactive	<0.01	<0.01	<0.1				
COc1cc([C@H]2OC[C@H]3[C@@H]2CO[C@@H]3c2cc(OC)c(OC)c(OC)c2O[C@@H]2O[C@H](CO)[C@@H](O)[C@H](O)[C@H]2O)cc2c1OCO2		inactive	inactive	inactive		<0.01					
COc1cc([C@H]2OC[C@H]3[C@@H]2CO[C@H]3c2cc(OC)c(OC)c(OC)c2O[C@@H]2O[C@H](CO)[C@@H](O)[C@H](O)[C@H]2O)cc2c1OCO2	>50	inactive	inactive	inactive	5.6	<0.01	0.6				
COc1cc([C@H]2OC[C@H]3[C@@H]2CO[C@@H]3c2cc(OC)c(OC)c(OC)c2O[C@@H]2O[C@H](CO)[C@@H](O)[C@H](O)[C@H]2O)c(O)c(OC)c1OC		inactive	inactive	inactive	<0.01	<0.01					
COc1cc([C@H]2OC[C@H]3[C@@H]2CO[C@@H]3c2cc(OC)c3c(c2)OCO3)cc(O[C@@H]2O[C@H](CO)[C@@H](O)[C@H](O)[C@H]2O)c1OC		inactive	inactive	inactive	<0.01	<0.01		<0.01	>90		
COc1cc([C@@H]2OC[C@H]3[C@@H]2CO[C@@H]3c2cc(OC)c(OC)c(OC)c2O[C@@H]2O[C@H](CO)[C@@H](O)[C@H](O)[C@H]2O)c(O)c(OC)c1OC	>90	inactive	inactive	inactive	<0.1	<0.01	<0.01				
COc1cc([C@H]2OC[C@H]3[C@@H]2CO[C@@H]3c2cc(O)c(OC)c(OC)c2O[C@@H]2O[C@H](CO)[C@@H](O)[C@H](O)[C@H]2O)cc2c1OCO2	>90	inactive	inactive	inactive	10	<0.01	<0.1				
COc1cc([C@@H]2OC[C@@H]3[C@H]2CO[C@H]3c2cc(O)c(OC)c(OC)c2O[C@@H]2O[C@H](CO)[C@@H](O)[C@H](O)[C@H]2O)c(OC)c(OC)c1OC		inactive	inactive	inactive	<0.01	<0.01					
COc1cc([C@H]2OC[C@H]3[C@@H]2CO[C@@H]3c2cc(OC)c(OC)c(OC)c2O[C@@H]2O[C@H](CO)[C@@H](O)[C@H](O)[C@H]2O)cc(OC)c1OC	>50	inactive	inactive	inactive	<0.01	<0.01	9.8	<0.01	>90		
COc1cc([C@H]2OC[C@H]3[C@@H]2CO[C@@H]3c2ccc3c(c2)OCO3)c(O[C@@H]2O[C@H](CO)[C@@H](O)[C@H](O)[C@H]2O)c(OC)c1OC		inactive	inactive	inactive	<0.01	<0.01	<0.01	<0.01	>90	3.5	
CC/C(=C(\c1ccccc1)c1ccc(OCCN(C)C)cc1)c1ccccc1 [TAMOXIFEN]					0.1	0.1	0.3	0.9		4.5	7
